One series deals with JTNT1 cells. Nature of the series: Plasma membrane staining of single cells with FM4-64. The series is classed as cell-based, tobacco. The following applies: 100 nM. The protocol:
Plasmamembrane. JTNT1 cells were incubated with 5 μm FM4-64 (styryl dye) for 5 minutes and washed with fresh media. The culture was centrifuged at 3000 rpm, and fresh media was added. The cells were visualized on Zeiss ApoTome microscope.

Series [1] concerns JTNT1 tobacco cell suspension cultures. The series is described as follows: Single cell production, growth and viability of JTNT1 suspension with microtubule inhibitors in 24-well plates, glycerol medium. Conditions: for cell growth and appearance: all concentrations tested (1, 3, 10 μM). From the text:
JTNT1 Tobacco Suspension Cultures. […] Furthermore, Suc stabilizes preformed microtubules, making an examination of the effects of MTIs on preformed microtubules unfeasible. In addition, sucrose increases solution viscosity substantially, and tubulin polymerization is altered at least in part by slowed dimer and polymer diffusion rates. Thus, it was important to have low or no sucrose in medium where the single cell production. Thus, a new JTNT1 line habituated in Glycerol was developed for this study.
Each of the 24 well contained 1 ml of JTNT1 suspension. The 24-well plates were kept on an Innova 4900 Multi Environmental Shaker with special clamps and harnesses to allow stacking of plates up to 6 plates high. The plates were rotated at a speed of 130 rpm and 25° C. in dark.
Single Cell Production. Each compound was dissolved in dimethyl sulfoxide (DMSO) to provide 0.5 Molar stock solutions. One ml of JTNT1 suspension (1 ml PCV/20 ml tobacco media) was added to each well of the 24 well plates. To each well an individual chemical was added to achieve the desired concentrations (at 1 μM, 3 μM, and 10 μM). The cultures were allowed to grow for 7 days on the Innova Shaker. Each day turbidity measurements was taken on each well using a SpectraMax M2^e by Molecular devices (set at 600 absorbance, with 5 readings taken per well). On day 7, cells were observed using the Leica 5000 inverted confocal microscope for formation of single cells and cell viability.

The subject of the next series is plant tubulin. Conditions: 1 M Sucrose; cited from earlier work.
Another series relates to JTNT1 single cells. Nature of the series: Cytological characterization of JTNT1 single cells (nucleus, cell wall). The series is classed as cell-based, tobacco. The protocol:
JTNT1 Tobacco single cell initiation and sample collection. JTNT1 Tobacco single cells were initiated in two different media, NT1B with 3% sucrose (NT1B-Suc) and NT1B with 3% glycerol (NT1B-Gly) in 3.5 day culture cycle. […] The flasks were closed with a foam stopper and cultured on a orbital shaker at 130 rpm in dark at 25-28° C. The cultures were sub cultured every 3.5 days up to a period of 14 days. Four samples (Suc/Gly grown cells and the control cultures in Suc/Gly media with 0.2% DMSO) of the cultures were harvested every 3.5 days by spinning the suspension at 3000 rpm for 5 minutes. The samples were immediately lyophilized to prevent any cell oxidation to minimize any deleterious effect on the samples introduced post harvest. Single cells were stained with Hoechst nuclear stain for an hour and observed under scopes for any nuclear anomaly up to two culture cycles.
Cell viability and Cell wall. Established JTNT1 single cells were used to stain with FUN1 (F-7030, Molecular Probes, Invitrogen Inc) cell stain which is used for viability test in yeast, and this contains two color fluorescent probes. The third one, Calcofluor White M2R which stains cell wall, was used to stain the cells. For JTNT1 single cells, […] of FUN1 stain is added and the culture was incubated at room temperature for 20 mins 1 mL fresh culture media was added to wash the excess stain and centrifuged at 3000 rpm; the supernantant was discarded. The cells were examined and imaged on Zeiss ApoTome microscope.
Nucleus. Single cells were stained with Hoechst nuclear stain for an hour and observed on Zeiss Apo Tome for any nuclear anomaly up to two culture cycles. Crystal violet stain was also used as a live nuclear stain for observing nuclear structure for ploidy characterization

For `CCC(C)(CC)c1cc(NC(=O)c2c(OC)cccc2OC)on1` [Isoxeben], the “FM4-64 staining of single cells” value with JTNT1 cells is “extensive vesicle on the surface”.

As for `CSC(=O)c1c(C(F)F)nc(C(F)(F)F)c(C(=O)SC)c1CC(C)C` [Dithiopyr], the single cell formation result in series [1] (1 μM and 3 μM) was “single cells were formed”; in series [1] (10 μM), “the concentration of the cells was low”. Besides, the “cell growth and appearance” value in series [1] was “healthy, growing and yellow in color”.

For `COP(=S)(NC(C)C)Oc1ccc(C)cc1[N+](=O)[O-]` (stereo not drawn) [APM, Amiprophosmethyl], in the series with plant tubulin, the “effect on plant microtubule length” value is reported as “concentration-dependent decrease in plant microtubule length”. The “concentration at which single cells were formed” value in series [1] lay within 1 to 10 µM. Besides, in series [1] (1 μM and 3 μM), the cell growth entry is “grew well”. The “effect at higher concentration” value in series [1] (above 1-10 μM) is “remarkable reduction of growth and cell division inhibition”. Besides, the “cell viability (Fluorescein diacetate and Propidium Iodine stains)” value in series [1] (tobacco, 7 days) is “up to 70%”.

Take `COc1ccc([C@H]2CC=CC[C@@H]2[N+](=O)[O-])c(OC)c1OC` (racemic) [trimethoxyphenylcyclohexene, (±)-4S,5R-4-nitro-5-(2,3,4-trimethoxyphenyl)-cyclohexene]: the “nuclear organization of single cells” value in the series on JTNT1 single cells (1 uM, 3.5 d cultures) is given as “single nucleus”. In addition, in the series with JTNT1 single cells (14 days of continuous treatments), the nuclear ploidy entry is “low or no nuclear ploidy percentage”. Further, in series [1], the bleaching of cells result was “mild bleaching”; the “cell growth and appearance” value is on record as “grew very well”. Further, the single cell formation result in series [1] (1 μM, 3 μM, and 10 μM) was “promoted the formation of single cells”. Besides, in series [1] (across all levels (1 μM, 3 μM, 10 μM)), the cell viability is 80-90%.

The values above are taken from US8206983B2, “In vitro methods for the induction and maintenance of plant cell lines as single suspension cells with intact cell walls” (Dow AgroSciences, LLC., priority 2006, dated 2012).
